Converted amounts (≈) assume the structure as drawn. The source made the active and inactive calls. No cut-off for these calls is given here. Where a SMILES comes first, the peptide text is derived from it.
What was measured:
[1] = tested on: Klebsiella pneumoniae; test: Antibacterial activity against Klebsiella pneumoniae ATTC 13883 measured after overnight incubation by microtitre plate based spectrophotometric method; format: functional
[2] = Aggregation property of the compound in 5% dextrose at 1 mg/ml by turbidimetric method; format: physicochemical
[3] = Aggregation of the compound in human PBMC assessed as amorphous morphology at 50 ug/ml measured after 4 hrs by microscopic analysis; format: ADME, tissue-based; details: dose 50 µg/ml
[4] = tested on: Acinetobacter baumannii; test: Antibiofilm activity against Acinetobacter baumannii 5015 incubated for 24 hrs under shaking condition by turbidometric method; format: functional
[5] = Aggregation property of the compound in sodium phosphate solution at 10 mM by turbidimetric method; format: physicochemical; details: 10000 µM
[6] = Aggregation property of the compound in RPMI medium with 1% FBS at 1 mg/ml by turbidimetric method; format: physicochemical
[7] = tested on: Staphylococcus aureus; test: Antibiofilm activity against methicillin-resistant Staphylococcus aureus USA300 LAC incubated for 24 hrs under shaking condition by turbidometric method; format: functional
[8] = target: T1, Trypsin (Homo sapiens, UniProt P07477+P07478+P35030); test: Stability of the compound in pH 8.2 ammonium bicarbonate buffer assessed as trypsin (unknown origin)-mediated drug degradation at 20 ug/ml measured up to 120 mins by MALDI-TOF analysis; format: ADME, protein assay; details: pH 8.2, 2 h, at 20 µg/mL
[9] = tested on: Acinetobacter baumannii; test: Antibiofilm activity against Acinetobacter baumannii 17918 incubated for 24 hrs under shaking condition by turbidometric method; format: functional
[10] = tested on: PBMC; test: Immunomodulatory activity in human PBMC assessed as increase in MCP1 production at 25 ug/ml measured after overnight incubation by ELISA; format: functional, tissue-based; details: dose 25.0 µg/ml
[11] = tested on: Escherichia coli; test: Antibiofilm activity against Escherichia coli ATTC 489 incubated for 24 hrs under shaking condition by turbidometric method; format: functional
[12] = tested on: Klebsiella pneumoniae; test: Antibiofilm activity against Klebsiella pneumoniae ATTC 13883 incubated for 24 hrs under shaking condition by turbidometric method; format: functional
[13] = tested on: Pseudomonas aeruginosa; test: Antibiofilm activity against Pseudomonas aeruginosa PAO1 incubated for 24 hrs under shaking condition by turbidometric method; format: functional
[14] = Aggregation property of the compound in sodium nitrate solution at 10 mM by turbidimetric method; format: physicochemical; details: 10000 µM
[15] = target: T1, Trypsin; test: Stability of the compound in pH 8.2 ammonium bicarbonate buffer assessed as trypsin (unknown origin)-mediated drug degradation at 20 ug/ml measured up to 120 mins by RP-HPLC analysis; format: ADME, protein assay; details: pH 8.2, 2 h, at 20 µg/mL
[16] = tested on: Staphylococcus aureus; test: Antibiofilm activity against methicillin-resistant Staphylococcus aureus SAP0017 incubated for 24 hrs under shaking condition by turbidometric method; format: functional
[17] = Aggregation property of the compound in saline at 1 mg/ml by turbidimetric method; format: physicochemical; details: buffer
[18] = Cytotoxicity against human PBMC assessed as reduction in cell viability at 100 ug/ml measured after 24 hrs by LDH assay; format: tissue-based; details: dose 100 µg/ml
[19] = tested on: Pseudomonas aeruginosa; test: Antibacterial activity against Pseudomonas aeruginosa PAO1 measured after overnight incubation by microtitre plate based spectrophotometric method; format: functional
[20] = tested on: PBMC; test: Immunomodulatory activity in human PBMC assessed as change in TNFalpha production at 25 ug/ml measured after overnight incubation by ELISA; format: functional, tissue-based; details: dose 25.0 µg/ml
[21] = tested on: Acinetobacter baumannii; test: Antibacterial activity against Acinetobacter baumannii 17918 measured after overnight incubation by microtitre plate based spectrophotometric method; format: functional
[22] = tested on: Pseudomonas aeruginosa; test: Antibiofilm activity against Pseudomonas aeruginosa PA14 incubated for 24 hrs under shaking condition by turbidometric method; format: functional
[23] = tested on: Staphylococcus aureus; test: Antibacterial activity against methicillin-resistant Staphylococcus aureus USA300 LAC measured after overnight incubation by microtitre plate based spectrophotometric method; format: functional
[24] = tested on: Acinetobacter baumannii; test: Antibacterial activity against Acinetobacter baumannii 5015 measured after overnight incubation by microtitre plate based spectrophotometric method; format: functional
[25] = tested on: PBMC; test: Immunomodulatory activity in human PBMC assessed as increase in IL-1RA production at 25 ug/ml measured after overnight incubation by ELISA; format: functional, tissue-based; details: dose 25.0 µg/ml
[26] = Aggregation property of the compound in water at 1 mg/ml by turbidimetric method; format: physicochemical; details: buffer
[27] = Aggregation property of the compound in sodium citrate solution at 10 mM by turbidimetric method; format: physicochemical; details: 10000 µM
[28] = tested on: Staphylococcus aureus; test: Antibacterial activity against methicillin-resistant Staphylococcus aureus SAP0017 measured after overnight incubation by microtitre plate based spectrophotometric method; format: functional
[29] = tested on: Escherichia coli; test: Antibacterial activity against Escherichia coli ATTC 489 measured after overnight incubation by microtitre plate based spectrophotometric method; format: functional
[30] = tested on: Pseudomonas aeruginosa; test: Antibacterial activity against Pseudomonas aeruginosa PA14 measured after overnight incubation by microtitre plate based spectrophotometric method; format: functional
[31] = tested on: Escherichia coli; test: Antibiofilm activity against 24 hrs preformed Escherichia coli ATTC 489 biofilm assessed as reduction in biofilm viability at 100 ug/ml by TTC assay; format: functional, organism-based; details: dose 100.0 µg/ml
[32] = tested on: Pseudomonas aeruginosa; test: Antibiofilm activity against 24 hrs preformed Pseudomonas aeruginosa PAO1 biofilm assessed as reduction in biofilm viability at 100 ug/ml by TTC assay; format: functional, organism-based; details: dose 100.0 µg/ml
[33] = tested on: Acinetobacter baumannii; test: Antibiofilm activity against 24 hrs preformed Acinetobacter baumannii 17918 biofilm assessed as reduction in biofilm viability at 100 ug/ml by TTC assay; format: functional, organism-based; details: dose 100.0 µg/ml
[34] = tested on: Klebsiella pneumoniae; test: Antibiofilm activity against 24 hrs preformed Klebsiella pneumoniae ATTC 13883 biofilm assessed as reduction in biofilm viability at 100 ug/ml by TTC assay; format: functional, organism-based; details: dose 100.0 µg/ml
[35] = tested on: Pseudomonas aeruginosa; test: Antibiofilm activity against 24 hrs preformed Pseudomonas aeruginosa PA14 biofilm assessed as reduction in biofilm viability at 100 ug/ml by TTC assay; format: functional, organism-based; details: dose 100.0 µg/ml
[36] = tested on: Acinetobacter baumannii; test: Antibiofilm activity against 24 hrs preformed Acinetobacter baumannii 5015 biofilm assessed as reduction in biofilm viability at 100 ug/ml by TTC assay; format: functional, organism-based; details: dose 100.0 µg/ml

Molecule | MIC [1] [µM] | MBEC [4] [µM] | MBEC [7] [µM] | MBEC [9] [µM] | MBEC [11] [µM] | MBEC [12] [µM] | MBEC [13] [µM] | MBEC [16] [µM] | MIC [19] [µM] | MIC [21] [µM] | MBEC [22] [µM] | MIC [23] [µM] | MIC [24] [µM] | MIC [28] [µM] | MIC [29] [µM] | MIC [30] [µM] | also measured
CC[C@H](C)[C@@H]1NC(=O)[C@H](CCCNC(=N)N)NC(=O)[C@H](C(C)C)NC(=O)[C@H](C)NC(=O)[C@H](C(C)C)NC(=O)[C@H]([C@@H](C)CC)NC(=O)[C@H](CC(C)C)NC(=O)[C@H](CCCNC(=N)N)NC(=O)[C@H](C(C)C)NC(=O)[C@H](CCCNC(=N)N)NC(=O)[C@H](CCCNC(=N)N)NC(=O)[C@H](Cc2c[nH]c3ccccc23)NC1=O (cyclo(AVRIWRRVRLIV)) | 65.8 (≈ 99.9 µg/mL) | >65.8 | 65.8 | >65.8 | >65.8 | >65.8 | >65.8 | 65.8 | > 65.8 | 65.8 (≈ 99.9 µg/mL) | >65.8 | 65.8 (≈ 99.9 µg/mL) | 65.8 (≈ 99.9 µg/mL) | 65.8 (≈ 99.9 µg/mL) | 65.8 (≈ 99.9 µg/mL) | > 65.8 | Activity [2]: Not Active; Activity [3]: Not Active; Activity [5]: Not Active; Activity [6]: Active; Stabilty [8]: Stable; Activity [10]: Active; Activity [14]: Not Active; Stabilty [15]: Stable; Activity [17]: Not Active; Activity [18]: Toxic; Activity [20]: Active; Activity [25]: Active; Activity [26]: Not Active; Activity [27]: Not Active
CCCCCCCCCCCCCCCC[N+](C)(C)Cc1ccccc1.[Cl-] [CETALKONIUM CHLORIDE] | 7.8 | 40.3 | 20.1 | 40.3 | 40.3 | 63.1 | >126 | 15.1 | > 126 | 7.8 | >126 | 3.7 | 7.8 | 3.7 | 7.8 | > 126 | 
CN[C@H](CC(C)C)C(=O)N[C@H]1C(=O)N[C@@H](CC(N)=O)C(=O)N[C@H]2C(=O)N[C@H]3C(=O)N[C@H](C(=O)N[C@H](C(=O)O)c4cc(O)cc(O)c4-c4cc3ccc4O)[C@H](O)c3ccc(c(Cl)c3)Oc3cc2cc(c3O[C@@H]2O[C@H](CO)[C@@H](O)[C@H](O)[C@H]2O[C@H]2C[C@](C)(N)[C@H](O)[C@H](C)O2)Oc2ccc(cc2Cl)[C@H]1O [VANCOMYCIN] | > 68 | >68 | >68 | >68 | >68 | >68 | >68 | >68 | > 68 | > 68 | >68 | 0.4 (≈ 0.58 µg/mL) | > 68 | 0.4 (≈ 0.58 µg/mL) | > 68 | > 68 | 
COLISTIN | 1.2 | > 86 | > 86 | > 86 | > 86 | > 86 | > 86 | > 86 | 2.5 | 1.2 | > 86 | > 86 | 1.2 | > 86 | 1.2 | 2.5 | Activity [31]: inactive; Activity [32]: inactive; Activity [33]: inactive; Activity [34]: inactive; Activity [35]: inactive; Activity [36]: inactive

Reference: ChEMBL document CHEMBL4725351, “Cyclic Derivative of Host-Defense Peptide IDR-1018 Improves Proteolytic Stability, Suppresses Inflammation, and Enhances In Vivo Activity” (J Med Chem, 2020)
